Source: the supplement of paper PMC11061612

Legend:
Assay in all cases: Bliss excess, mean over the matrix (fraction); higher = more synergy
[1] = tested on: Ramos-2G6-4C10 (Burkitt's Lymphoma)
In short: (§1)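 Cell lines grown in DMEM/F12 or RPMI with 10% FBS were plated in 1536-well plates and held 24 hours at 37°C, 5% CO2 before 72 hours of exposure to two-drug dose matrices, with DMSO typically at 0.2%. CellTiter-Glo 2.0 luminescence gave viability, which was converted to inhibition. Vehicle wells were set to 0 and blank wells to 1. Combination Emax is the second-highest inhibition in the matrix, and Bliss excess is the observed combination effect minus the expected EA + EB − EA·EB, where EA and EB are the single-agent effects.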

ES4 (Ewing's Sarcoma) = tested on: ES4 (Ewing's Sarcoma)
In short: as §1

[2] = tested on: HCC-78 (Lung Adenocarcinoma)
In short: as §1

[3] = tested on: TE-15 (Esophageal Squamous Cell Carcinoma)
In short: as §1

[4] = tested on: SK-ES-1 (Ewing's Sarcoma)
In short: as §1

[5] = tested on: COLO-205 (Colorectal Carcinoma)
In short: as §1

[6] = tested on: TCCSUP (Bladder Carcinoma)
In short: as §1

[7] = tested on: EC-GI-10 (Esophageal Squamous Cell Carcinoma)
In short: as §1

[8] = tested on: ME-1 (Acute Myeloid Leukemia)
In short: as §1

[9] = tested on: DEL (T-Cell Non-Hodgkin's Lymphoma)
In short: as §1

[10] = tested on: DoTc2-4510 (Cervical Carcinoma)
In short: as §1

AGS (Gastric Carcinoma) = tested on: AGS (Gastric Carcinoma)
In short: as §1

[11] = tested on: LU-135 (Small Cell Lung Carcinoma)
In short: as §1

[12] = tested on: UM-UC-3 (Bladder Carcinoma)
In short: as §1

[13] = tested on: TE-9 (Esophageal Squamous Cell Carcinoma)
In short: as §1

[14] = tested on: SNU-5 (Gastric Carcinoma)
In short: as §1

[15] = tested on: HO-1-N-1 (Oral Cavity Carcinoma)
In short: as §1

T98G (Glioblastoma) = tested on: T98G (Glioblastoma)
In short: as §1

42-MG-BA (Glioblastoma) = tested on: 42-MG-BA (Glioblastoma)
In short: as §1

[16] = tested on: NCI-H82 (Small Cell Lung Carcinoma)
In short: as §1

Row | SMILES | Bliss excess [1] | Bliss excess (ES4 (Ewing's Sarcoma)) | Bliss excess [2] | Bliss excess [3] | Bliss excess [4] | Bliss excess [5] | Bliss excess [6] | Bliss excess [7] | Bliss excess [8] | Bliss excess [9] | Bliss excess [10] | Bliss excess (AGS (Gastric Carcinoma)) | Bliss excess [11] | Bliss excess [12] | Bliss excess [13] | Bliss excess [14] | Bliss excess [15] | Bliss excess (T98G (Glioblastoma)) | Bliss excess (42-MG-BA (Glioblastoma)) | Bliss excess [16]
1 | NC1(C(=O)N[C@@H](CCO)c2ccc(Cl)cc2)CCN(c2ncnc3[nH]ccc23)CC1 [Capivasertib] + C[C@@H]1COCCN1C2=NC(=NC(=C2)C3(CC3)[S@](=N)(=O)C)C4=C5C=CNC5=NC=C4 [AZD6738] (first compound max 10 µM, 7x7, partner max 10 µM) | 0.0183 | -0.0919 | -0.0239 | -0.0494 | -0.0831 | 0.0092 | -0.0312 | -0.0804 | -0.0086 | 0.0172 | -0.0192 | -0.0449 | 0.0393 | 0.0085 | -0.0415 | -0.0375 | -0.0027 | -0.0557 | -0.0514 | -0.0279
2 | CN(CCO)CC[C@H](CSc1ccccc1)Nc1ccc(S(=O)(=O)NC(=O)c2ccc(N3CCC([C@@H](O)c4ccccc4-c4ccc(Cl)cc4)CC3)cc2)cc1S(=O)(=O)C(F)(F)F [AZD4320] + CN(C)CCCOc1ccc(-c2ccc3ncc4c(c3c2)n(C2CCOCC2)c(=O)n4C)cn1 [AZD0156] (first compound max 1 µM, 7x7, partner max 1 µM) | 0.026 | 0.0223 | -0.033 | -0.0455 | 0.047 | -0.054 | -0.0227 | -0.0333 | -0.0069 | 0.0265 | -0.12 | -0.0561 | 0.0332 | -0.0219 | -0.0101 | 0.0286 | -0.0011 | -0.044 | -0.0225 | 0.012
3 | NC1(C(=O)N[C@@H](CCO)c2ccc(Cl)cc2)CCN(c2ncnc3[nH]ccc23)CC1 [Capivasertib] + CC(C)n1c(=O)n(C)c2cnc3cc(F)c(-c4ccc(OCCCN5CCCCC5)nc4)cc3c21 [AZD1390] (first compound max 10 µM, 7x7, partner max 0.3 µM) | -0.0205 | -0.0585 | -0.0434 | -0.0774 | 0.0079 | -0.0605 | -0.084 | -0.0418 | -0.0319 | 0.0336 | -0.0976 | -0.108 | -0.0242 | -0.0211 | -0.0431 | -0.0708 | 0.0055 | -0.0652 | -0.0608 | 0.0005
4 | NC1(C(=O)N[C@@H](CCO)c2ccc(Cl)cc2)CCN(c2ncnc3[nH]ccc23)CC1 [Capivasertib] + CCN(CCO)CCCOc1ccc2c(Nc3cc(CC(=O)Nc4cccc(F)c4)[nH]n3)ncnc2c1 [AZD2811] (first compound max 10 µM, 7x7, partner max 1 µM) | 0.139 | 0.0317 | -0.015 | -0.0095 | -0.0359 | -0.0551 | -0.0397 | 0.06 | -0.055 | -0.0743 | -0.0749 | 0.0129 | -0.0334 | -0.0255 | -0.0124 | -0.0103 | -0.046 | 0.0344 | -0.0306 | 0.0054
5 | CC1(C)CCC(CN2CCN(c3ccc(C(=O)NS(=O)(=O)c4ccc(NCC5CCOCC5)c([N+](=O)[O-])c4)c(Oc4cnc5[nH]ccc5c4)c3)CC2)=C(c2ccc(Cl)cc2)C1 [Venetoclax] + Cn1cnc2c(F)c(Nc3ccc(Br)cc3Cl)c(C(=O)NOCCO)cc21 [Selumetinib] (first compound max 1 µM, 7x7, partner max 3 µM) | -0.0144 | -0.0412 | -0.0329 | -0.0268 | 0.0234 | -0.0722 | -0.0444 | -0.0293 | 0.055 | 0.0117 | -0.0414 | -0.0792 | -0.0545 | -0.0445 | -0.027 | -0.0192 | -0.0037 | -0.0186 | -0.0279 | -0.0125
6 | Cn1cnc2c(F)c(Nc3ccc(Br)cc3Cl)c(C(=O)NOCCO)cc21 [Selumetinib] + C[C@@H]1COCCN1C2=NC(=NC(=C2)C3(CC3)[S@](=N)(=O)C)C4=C5C=CNC5=NC=C4 [AZD6738] (first compound max 10 µM, 7x7, partner max 10 µM) | -0.0714 | -0.039 | -0.0254 | 0.0391 | -0.005 | 0.0526 | -0.0141 | 0.0623 | -0.0752 | 0.0172 | -0.0282 | 0.0281 | 0.0383 | 0.0057 | -0.0063 | 0.0524 | -0.0475 | -0.0174 | -0.0061 | -0.0337
7 | CN(C)CCCOc1ccc(-c2ccc3ncc4c(c3c2)n(C2CCOCC2)c(=O)n4C)cn1 [AZD0156] + C[C@@H]1COCCN1C2=NC(=NC(=C2)C3(CC3)[S@](=N)(=O)C)C4=C5C=CNC5=NC=C4 [AZD6738] (first compound max 1 µM, 7x7, partner max 10 µM) | 0.0933 | 0.0618 | -0.0031 | -0.0283 | 0.0267 | -0.0057 | -0.0255 | 0.0263 | -0.107 | 0.0293 | 0.0037 | 0.0232 | -0.032 | 0.0101 | -0.0034 | -0.0347 | -0.0101 | -0.0297 | 0.0224 | 0.0286
8 | C=CCn1c(=O)c2cnc(Nc3ccc(N4CCN(C)CC4)cc3)nc2n1-c1cccc(C(C)(C)O)n1 [AZD1775] + O=C(c1cc(Cc2n[nH]c(=O)c3ccccc23)ccc1F)N1CCN(C(=O)C2CC2)CC1 [Olaparib] (first compound max 1 µM, partner max 10 µM) | -0.0238 | 0.0199 | -0.029 | -0.106 | 0.0511 | -0.0149 | 0.0107 | -0.0245 | -0.0873 | 0.0023 | -0.0634 | 0.0116 | -0.0249 | 0.0251 | -0.0271 | -0.0833 | 0.0217 | -0.113 | 0.0093 | -0.0098
9 | C[C@@H](c1ccc2nccn2c1)n1nnc2ncc(-c3cnn(C)c3)nc21 [Savolitinib] + Cc1c2c(nn1C)CSCc1cc(n(C)n1)CSc1cc(c3ccccc3c1)OCCCc1c(C(=O)O)n(C)c3c-2c(Cl)ccc13 [AZD5991] (first compound max 1 µM, 7x7, partner max 1 µM) | 0.0002 | -0.0724 | -0.0366 | -0.0511 | -0.0326 | -0.0386 | -0.0262 | -0.07 | -0.051 | -0.0441 | -0.0204 | -0.0855 | -0.0056 | -0.0161 | -0.0683 | 0.0188 | -0.0373 | -0.021 | -0.0633 | -0.0763
10 | COc1cccc(OCCCN)c1-c1cc(Nc2cnc(C#N)cn2)n[nH]1 [Prexasertib] + C=CCn1c(=O)c2cnc(Nc3ccc(N4CCN(C)CC4)cc3)nc2n1-c1cccc(C(C)(C)O)n1 [AZD1775] (first compound max 1 µM, partner max 1 µM) | 0.112 | 0.0978 | 0.0774 | 0.0165 | 0.0454 | 0.125 | 0.0389 | 0.077 | 0.0408 | 0.0279 | 0.048 | 0.195 | -0.0004 | 0.14 | 0.2 | 0.0491 | 0.104 | -0.0232 | 0.0835 | 0.0778
11 | Cc1c2c(nn1C)CSCc1cc(n(C)n1)CSc1cc(c3ccccc3c1)OCCCc1c(C(=O)O)n(C)c3c-2c(Cl)ccc13 [AZD5991] + Cn1cnc2c(F)c(Nc3ccc(Br)cc3Cl)c(C(=O)NOCCO)cc21 [Selumetinib] (first compound max 1 µM, 7x7, partner max 3 µM) | -0.0074 | -0.0173 | -0.0245 | 0.0114 | -0.0186 | 0.0145 | -0.0066 | 0.051 | 0.162 | 0.0049 | 0.0343 | 0.186 | -0.0003 | 0.0332 | -0.0097 | 0.0262 | 0.0303 | 0.0157 | -0.03 | -0.0406
12 | CC1(C)CCC(CN2CCN(c3ccc(C(=O)NS(=O)(=O)c4ccc(NCC5CCOCC5)c([N+](=O)[O-])c4)c(Oc4cnc5[nH]ccc5c4)c3)CC2)=C(c2ccc(Cl)cc2)C1 [Venetoclax] + CCN(CCO)CCCOc1ccc2c(Nc3cc(CC(=O)Nc4cccc(F)c4)[nH]n3)ncnc2c1 [AZD2811] (first compound max 1 µM, 7x7, partner max 1 µM) | 0.0321 | -0.029 | -0.0149 | -0.0386 | 0.0156 | -0.0461 | -0.0259 | -0.0058 | -0.0118 | -0.0345 | -0.0189 | 0.0196 | -0.0099 | -0.0234 | -0.0184 | -0.0426 | -0.032 | -0.0169 | 0.0019 | 0.0452
13 | Cc1c2c(nn1C)CSCc1cc(n(C)n1)CSc1cc(c3ccccc3c1)OCCCc1c(C(=O)O)n(C)c3c-2c(Cl)ccc13 [AZD5991] + C[C@@H]1COCCN1C2=NC(=NC(=C2)C3(CC3)[S@](=N)(=O)C)C4=C5C=CNC5=NC=C4 [AZD6738] (first compound max 1 µM, 7x7, partner max 10 µM) | 0.0097 | -0.0118 | 0.0028 | -0.0441 | 0.017 | 0.0116 | 0.0241 | 0.061 | 0.0454 | 0.004 | -0.0327 | 0.0629 | 0.0274 | 0.0159 | -0.0039 | -0.0075 | -0.0134 | -0.0069 | 0.041 | -0.0218
14 | CN(C)CCCOc1ccc(-c2ccc3ncc4c(c3c2)n(C2CCOCC2)c(=O)n4C)cn1 [AZD0156] + C=CCn1c(=O)c2cnc(Nc3ccc(N4CCN(C)CC4)cc3)nc2n1-c1cccc(C(C)(C)O)n1 [AZD1775] (first compound max 1 µM, partner max 1 µM) | 0.0365 | 0.0122 | 0.0011 | -0.0705 | 0.0045 | -0.0229 | -0.0651 | -0.0001 | -0.0276 | -0.0036 | -0.0204 | -0.0517 | 0.0024 | -0.007 | -0.0422 | -0.0705 | -0.012 | -0.0598 | 0.0275 | -0.0283
